Source: patent publication US20140142053A1, “Use of a Composition Comprising Acylated Steryl Glucoside in the Manufacture of a Product” (UNIVERSITI PUTRA MALAYSIA, priority 2011, published 2014)

Tests used:
[1] = test system: low-density lipoprotein (LDL); experiment: percentage change in low-density lipoprotein in diabetic rats (FIG. 5); format: in vivo, rat; conditions: compared to white rice-fed and tween-treated rats
[2] = test system: high-density lipoprotein (HDL); experiment: percentage change in high-density lipoprotein in diabetic rats (FIG. 7); format: in vivo, rat; conditions: A200: ASG in 200 mg/kg body weight, compared to white-rice fed and metformin-treated rats

| Compound | LDL level (percentage change in low-density lipoprotein) ([1]; fed/treated groups) | LDL level (percentage change in low-density lipoprotein) ([1]; A100: ASG in 100 mg/kg body weight) | LDL level (percentage change in low-density lipoprotein) ([1]; A200: ASG in 200 mg/kg body weight) | HDL level (percentage change in high-density lipoprotein) [2] |
| --- | --- | --- | --- | --- |
| CN(C)C(=N)N=C(N)N [metformin, reference compound] | reduced |  |  |  |
| acylated steryl glucoside [ASG] |  | reduced | reduced | increased |
